Assay results reported in patent US9750728B2, “Method and pharmaceutical composition for inhibiting PI3K/AKT/mTOR signaling pathway” (TARGETED THERAPEUTICS, LLC, priority 2012, dated 2017).
“Also recorded” adds a separate entry of the source.

Columns and labels:
Format in all cases: cell-based
[1] = test system: Panc-1; assay: Colony formation assay (clonogenic assay); details: Panc-1, rapamycin alone 1 nM and 10 nM
Experimental: 1.2. Colony formation assay (clonogenic assay) was used to analyze the effect of ZPP or Y29794 on cancer cell survival. 10^3 Panc-1 cells were plated in 100 mm petri dish in triplicate fed with 10 ml of DMEM containing 10% FBS. The cells were then treated by ZPP for 7 days and cultured for additional three weeks. Cells were then rinsed three times with PBS, fixed with 100% ethanol for 15 min, and stained with 2% crystal violet ethanol solution. The stained colonies were counted. All the results are statistically analyzed by one way ANOVA and two tailed t-test.

[2] = test system: S6K (T389) phosphorylation; assay: Immunoblot analysis of S6K phosphorylation; details: Panc-1 cells incl. PRCP and PREP silenced cells, rapamycin (FIG. 18D)
Experimental: 2.2 Immunoblot analysis of gene silencing of PRCP or PREP in cancer cells. Mouse anti-PRCP antibody was purchased from Abcam (Cambridge, Mass., USA). Goat anti-PREP antibody was purchased from R&D Systems (Minneapolis, Minn., USA). Mouse anti-R-actin antibody antibodies was from Santa Cruz Biotechnology (Santa Cruz, Calif., USA). Panc-1 pancreatic cancer cells and MCF7 breast cancer cells were cultured to 80% confluence, cells were rinsed three times with pre-cooled PBS, 500 μl of lysis buffer (150 mmol/L Nacl, 1% Triton-x-100, 50 mmol/l TrispH8.0, 1 mmol/L PMSF, 1 ug/L aprotinin, 1 ug/L leupeptin, 1 ug/L peptain) was added to the cells. Cells were scraped and transferred to a centrifuge tube with a pipette. The lysates were spun in a microcentrifuge at maximal speed for 10 minutes at 4° C. to get rid of the insoluble fraction. Protein concentration was determined by Bradford assay. […]

[3] = test system: IRS-1; assay: Immunoblot analysis of IRS-1 (protein, phosphorylation, half-life, p85 coimmunoprecipitation)
Experimental: (§1) 2.2 Immunoblot analysis of gene silencing of PRCP or PREP in cancer cells. Mouse anti-PRCP antibody was purchased from Abcam (Cambridge, Mass., USA). Goat anti-PREP antibody was purchased from R&D Systems (Minneapolis, Minn., USA). Mouse anti-R-actin antibody antibodies was from Santa Cruz Biotechnology (Santa Cruz, Calif., USA). Panc-1 pancreatic cancer cells and MCF7 breast cancer cells were cultured to 80% confluence, cells were rinsed three times with pre-cooled PBS, 500 μl of lysis buffer (150 mmol/L Nacl, 1% Triton-x-100, 50 mmol/l TrispH8.0, 1 mmol/L PMSF, 1 ug/L aprotinin, 1 ug/L leupeptin, 1 ug/L peptain) was added to the cells. Cells were scraped and transferred to a centrifuge tube with a pipette. The lysates were spun in a microcentrifuge at maximal speed for 10 minutes at 4° C. to get rid of the insoluble fraction. Protein concentration was determined by Bradford assay. For immunoprecipitation: 2-5 ug protein-specific antibodies were added to 250-500 ug of lysates in a tube and incubated on an ordital shaker 4° C. for 2-4 hours with moderate shaking, then 20 ul Protein G beads (Santa Cruz Biotechnology (Santa Cruz, Calif., USA.) were added and the mixture was incubated with moderate shaking for another hour. After washing the beads in lysis buffer five times, the immunoprecipitates were boiled in 2× Laemmli sample buffer (50 mmoL/L Tris-HCL (pH8.0), 100 mmoL/L DTT, 2% SDS, 0.1% bromophenol blue, 10% glycerol) for five minutes. The proteins were separated by conventional SDS-polyacrylamide gel electrophoresis (SDS-PAGE) electrophoresis and transferred to Amersham Hybond-P PVDF membrane (GE Company, Pittsburgh, Pa., USA). For immunoblot, the membrane was blocked in 2% BSA in TBST buffer (Tris 1.21 g+NaCl 5.84 g+800 ml H2O adjusted to pH 8.0 with HCl) for one hour and then incubated with primary antibodies in TBST at room temperature (22-25° C.) for 2 hours. After washing three times with TBST, the membrane was incubated with HRP-conjugated secondary antibodies for 0.5 hours at room temperature. After washing the membrane five times with TBST (5 minutes/each), the membrane was incubated with ECL chromogenic reagent (GE Company, Pittsburgh, Pa., USA) for 1-5 minutes. The blots were exposed to films in darkroom for 1-5 minute. The films were developed in an automatic X-OMAT Developer (KODAK, Rochester, N.Y., USA). […] PREP gene silencing (PREP KD) or PRCP gene silencing (PRCP KD) or gene silencing both PRCP and PREP (DKD) in MCF7 cells reduces expression of PREP and/or PRCP proteins compared with control cells (control) (FIGS. 6B & 6C).
3.2 AKT phosphorylation was examined by immunoblot as described in 3.1. IRS-1 expression was analyzed by immunoblot using anti-IRS-1 antibodies purchased from Santa Cruz Biotechnology (Santa Cruz, Calif., USA). Reduction in PRCP and/or PREP by gene silencing is shown by Western blot and quantitative PCR described in 2.2.
3.4 ZPP or Y29794 inhibits IRS-1 tyrosine phosphorylation and p85 PI3K subunit interaction with IRS-1 and PI3K kinase activity. Panc-1 cells were treated with ZPP (200 μM) or Y29794 (0.5 μM) for 24 hours. Lysates were immunoprecipitated with anti-IRS-1 antibodies and the anti-IRS-1 immunoprecipitates were used for PI3K kinase assay and anti-IRS-1 phospho-tyrosine and anti-p85 immunoblot analysis (FIG. 13). ZPP or Y29794 decreased IRS-1-associated PI3K activity (FIG. 13, upper) and tyrosine phosphorylation of IRS-1 and p85 (FIG. 13, lower).
As described in Example 2.2 and above, the cells with PRCP and PREP gene silencing were used for analysis of PRCP and PREP gene silencing and inhibition of serine phosphorylation and degradation of IRS-1 and its effects on response to rapamycin. […] Compared to control cells, DKD cells show […] serine phosphorylation (S307 and S636/639) of IRS-1 alongside with decreased tyrosine phosphorylation of IRS-1 (FIG. 18B). […]

[4] = test system: AKT phosphorylation (S473); assay: Immunoblot analysis of AKT phosphorylation in cancer cells; details: 24 hours
Experimental: as §1
3.1 Reduction in AKT phosphorylation is examined by immunoblot using rabbit anti-phospho-AKT […] and rabbit anti-pan AKT antibodies purchased from Cell Signaling Technology (Danvers, Mass., USA) in the cells with gene silencing of PRCP and/or PREP or treated with ZPP or Y29794. Reduction in PRCP and/or PREP is shown by Western blot and quantitative PCR described in 2.2.

[5] = test system: PI3K; assay: PI3K kinase assay in anti-IRS-1 immunoprecipitates; details: Panc-1, 24 hours; ZPP 200 μM, Y29794 0.5 μM or rapamycin alone
Experimental: PI3K kinase assay kit (Calbiochem, Bilerica, Mass., USA) was used to measure the IRS-1-associated or p85-associated PI3K kinase activity in cells. The indicated cells were treated with different conditions for 24 hours. The cells were rinsed three times with pre-cooled PBS, lysed in 500 μl of lysis buffer (150 mmol/L Nacl, 1% Triton-x-100, 50 mmol/1 Tris (pH8.0, 1 mmol/L PMSF, 1 μg/L aprotinin, 1 μg/Lleupeptin, 1 μg/L peptain). Cell lysates (500 μg, in triplicate) of were used for anti-IRS-1 or anti-p85 immunoprecipitation. The immunoprecipitates were resuspended in 200 μl assay buffer and mixed with the fluorescence-labeled PI3K substrate BODIPY-TMR-phosphatidylinositol (100 μM) and ATP (37° C.) for 1 hour. The fluorescence intensity was measured with a fluorometer (excitation wavelength of 540 nm, emission wavelength […]). The difference between fluorescence intensity between control immunoprecipitates (no lysates) and lysate immunoprecipitates was used to indicate PI3K kinase activity. IR-1 anti-rabbit antibody and rabbit anti-PI3K p85 antibody were purchased from Millipore Corporation (Billerica, Mass., USA). Panc-1 anti-p85 immunoprecipitates were used for PI3K kinase assay (FIG. 12) and immunoblot analysis (FIG. 12). Rapamycin treatment in control cells increased PI3K kinase activity (P<0.01). […]

[6] = test system: mTOR (S2448) phosphorylation; assay: Immunoblot analysis of mTOR phosphorylation; details: Panc-1; rapamycin, or Y29794 1 μM (FIG. 19D)
Experimental: Mouse anti-PRCP antibody was purchased from Abcam (Cambridge, Mass., USA). Goat anti-PREP antibody was purchased from R&D Systems (Minneapolis, Minn., USA). Mouse anti-R-actin antibody antibodies was from Santa Cruz Biotechnology (Santa Cruz, Calif., USA). Panc-1 pancreatic cancer cells and MCF7 breast cancer cells were cultured to 80% confluence, cells were rinsed three times with pre-cooled PBS, 500 μl of lysis buffer (150 mmol/L Nacl, 1% Triton-x-100, 50 mmol/l TrispH8.0, 1 mmol/L PMSF, 1 ug/L aprotinin, 1 ug/L leupeptin, 1 ug/L peptain) was added to the cells. Cells were scraped and transferred to a centrifuge tube with a pipette. The lysates were spun in a microcentrifuge at maximal speed for 10 minutes at 4° C. to get rid of the insoluble fraction. Protein concentration was determined by Bradford assay. For immunoprecipitation: 2-5 ug protein-specific antibodies were added to 250-500 ug of lysates in a tube and incubated on an ordital shaker 4° C. for 2-4 hours with moderate shaking, then 20 ul Protein G beads (Santa Cruz Biotechnology (Santa Cruz, Calif., USA.) were added and the mixture was incubated with moderate shaking for another hour. After washing the beads in lysis buffer five times, the immunoprecipitates were boiled in 2× Laemmli sample buffer (50 mmoL/L Tris-HCL (pH8.0), 100 mmoL/L DTT, 2% SDS, 0.1% bromophenol blue, 10% glycerol) for five minutes. The proteins were separated by conventional SDS-polyacrylamide gel electrophoresis (SDS-PAGE) electrophoresis and transferred to Amersham Hybond-P PVDF membrane (GE Company, Pittsburgh, Pa., USA). For immunoblot, the membrane was blocked in 2% BSA in TBST buffer (Tris 1.21 g+NaCl 5.84 g+800 ml H2O adjusted to pH 8.0 with HCl) for one hour and then incubated with primary antibodies in TBST at room temperature (22-25° C.) for 2 hours. After washing three times with TBST, the membrane was incubated with HRP-conjugated secondary antibodies for 0.5 hours at room temperature. […]

[7] = test system: PI3K; assay: PI3K kinase assay in anti-p85 immunoprecipitates; details: Panc-1, 24 hours; ZPP 200 μM, Y29794 0.5 μM or rapamycin alone, vs vehicle
Experimental: PI3K kinase assay kit (Calbiochem, Bilerica, Mass., USA) was used to measure the IRS-1-associated or p85-associated PI3K kinase activity in cells. The indicated cells were treated with different conditions for 24 hours. The cells were rinsed three times with pre-cooled PBS, lysed in 500 μl of lysis buffer (150 mmol/L Nacl, 1% Triton-x-100, 50 mmol/1 Tris (pH8.0, 1 mmol/L PMSF, 1 μg/L aprotinin, 1 μg/Lleupeptin, 1 μg/L peptain). Cell lysates (500 μg, in triplicate) of were used for anti-IRS-1 or anti-p85 immunoprecipitation. The immunoprecipitates were resuspended in 200 μl assay buffer and mixed with the fluorescence-labeled PI3K substrate BODIPY-TMR-phosphatidylinositol (100 μM) and ATP (37° C.) for 1 hour. The fluorescence intensity was measured with a fluorometer (excitation wavelength of 540 nm, emission wavelength […]). The difference between fluorescence intensity between control immunoprecipitates (no lysates) and lysate immunoprecipitates was used to indicate PI3K kinase activity. IR-1 anti-rabbit antibody and rabbit anti-PI3K p85 antibody were purchased from Millipore Corporation (Billerica, Mass., USA). Panc-1 anti-p85 immunoprecipitates were used for PI3K kinase assay (FIG. 12) and immunoblot analysis (FIG. 12). Rapamycin treatment in control cells increased PI3K kinase activity (P<0.01).

## CO[C@H]1C[C@@H]2CC[C@@H](C)[C@@](O)(O2)C(=O)C(=O)N2CCCC[C@H]2C(=O)O[C@H]([C@H](C)C[C@@H]2CC[C@@H](O)[C@H](OC)C2)CC(=O)[C@H](C)/C=C(\C)[C@@H](O)[C@@H](OC)C(=O)[C@H](C)C[C@H](C)/C=C/C=C/C=C/1C [rapamycin, (3S,6R,7E,9R,10R,12R,14S,15E,17E,19E,21S,23S,26R,27R,34aS)-9,10,12,13,14,21,22,23,24,25,26,27,32,33,34,34a-hexadecahydro-9,27-dihydroxy-3-[(1R)-2-[(1S,3R,4R)-4-hydroxy-3-methoxycyclohexyl]-1-methylethyl]-10,21-dimethoxy-6,8,12,14,20,26-hexamethyl-23,27-epoxy-3H-pyrido[2,1-c][1,4]oxaazacyclohentriacontine-1,5,11,28,29 (4H,6H,31H)-pentone]
[1]
  cell survival (colony formation): did not affect
[2]
  phosphorylation of S6K (T389): completely inhibited
[3]; MCF7, rapamycin 10 nM, 24 hours
  IRS-1 protein: increased; also recorded: induced an increase
[3]; Panc-1, rapamycin 10 nM (FIG. 10A legend)
  tyrosine phosphorylation of IRS-1: increased
[3]; Panc-1, rapamycin 10 nM, 24 hours
  IRS-1 protein: significantly increased; also recorded: induced an increase
[3]; control Panc-1 cells, rapamycin (FIG. 18D)
  serine phosphorylation (S307 and S636/639) of IRS-1: inhibits; also recorded: inhibiting
[3]; control Panc-1 cells, rapamycin, concentration not given
  IRS-1 protein: increases; also recorded: induced increase
[4]; MCF7, rapamycin 10 nM
  AKT phosphorylation: increased; also recorded: induced an increase
[4]; Panc-1, rapamycin 10 nM
  AKT phosphorylation: significantly increased; also recorded: induced an increase
[5]
  IRS-1-associated PI3K activity: increases; also recorded: significantly elevated
[6]
  mTOR (S2448) phosphorylation: inhibits; also recorded: completely inhibited
[7]
  PI3K kinase activity (p85-associated): increases; also recorded: significantly elevated
